These are literature values, as cited in patent publication US12606590B2, “MRNA 5′-end cap analogs, RNA molecule incorporating the same, uses thereof and method of synthesizing RNA molecule or peptide” (Uniwersytet Warszawski, priority 2020, dated 2026).

The conditions of the data set: in vitro and in vivo; single atom substitution in β position of cap oligophosphate bridge.

For the molecule `CO[C@@H]1[C@H](O)[C@@H](COP(=O)(O)OP(=O)([S-])OP(=O)(O)OC[C@H]2O[C@@H](n3cnc4c(=O)[nH]c(N)nc43)[C@H](O)[C@@H]2O)O[C@H]1n1c[n+](C)c2c(O)nc(N)nc21` (stereo partly drawn) [β-S-ARCA], the mRNA translation efficiency entry was “significant increase in mRNA translation efficiency”.
